Test results from publication PMC2248166, “Quantitative peptide binding motifs for 19 human and mouse MHC class I molecules derived using positional scanning combinatorial peptide libraries” (Immunome Research, 2008).
Where a SMILES comes first, the peptide text is derived from it.

What follows are compounds tested against HLA B*1501 (Homo sapiens, UniProt P01889, A329T/A93T/A95T/C349S/D201E/D98Y/E187L/E204Q/E69M/E70A/K202T/N87E/Q94N/R155S/R180W/S121R/S35A/S48A/V306I/V36M/Y140S/Y91S) (assay: biochemical).
Type: binding

SMILES	IC50 [nM]
CC[C@H](C)[C@H](NC(=O)[C@@H](N)Cc1ccccc1)C(=O)N[C@@H](CC(N)=O)C(=O)N[C@@H](CO)C(=O)N[C@H](C(=O)N[C@@H](CS)C(=O)N[C@@H](Cc1ccc(O)cc1)C(=O)N[C@H](C(=O)N[C@@H](Cc1ccccc1)C(=O)O)C(C)C)[C@@H](C)O [3102.0986] (H-FINSTCYVF-OH)	4.3
CC[C@H](C)[C@H](NC(=O)[C@@H](N)CCC(=O)O)C(=O)N[C@@H](C)C(=O)N[C@@H](CCCCN)C(=O)N[C@@H](Cc1ccc(O)cc1)C(=O)NCC(=O)N[C@@H](Cc1c[nH]cn1)C(=O)N[C@@H](CO)C(=O)N[C@@H](Cc1ccccc1)C(=O)O [3102.0911] (H-EIAKYGHSF-OH)	58
CC[C@H](C)[C@H](NC(=O)[C@@H](N)CCCCN)C(=O)N[C@@H](CCCCN)C(=O)N[C@@H](Cc1c[nH]cn1)C(=O)N[C@@H](CCCCN)C(=O)NCC(=O)N[C@@H](CCSC)C(=O)N[C@@H](CO)C(=O)N[C@@H](Cc1ccccc1)C(=O)O [3102.0851] (H-KIKHKGMSF-OH)	47
CC[C@H](C)[C@H](NC(=O)[C@@H](NC(=O)[C@@H](N)CO)[C@@H](C)CC)C(=O)N[C@H](C(=O)N[C@@H](CC(C)C)C(=O)N[C@@H](Cc1ccccc1)C(=O)N[C@@H](CCC(N)=O)C(=O)N[C@@H](CCCNC(=N)N)C(=O)N[C@@H](Cc1ccccc1)C(=O)O)C(C)C [3102.0801] (H-SIIVLFQRF-OH)	1.1
CSCC[C@H](NC(=O)[C@@H](N)CCCNC(=N)N)C(=O)N[C@@H](Cc1ccccc1)C(=O)N[C@@H](Cc1c[nH]cn1)C(=O)N[C@@H](Cc1ccccc1)C(=O)N[C@@H](Cc1ccccc1)C(=O)N[C@@H](CCC(=O)O)C(=O)N[C@@H](Cc1c[nH]cn1)C(=O)N[C@@H](CCC(=O)O)C(=O)O [3102.0915] (H-RMFHFFEHE-OH)	67
CC(C)C[C@H](NC(=O)[C@H](CC(C)C)NC(=O)[C@@H](N)Cc1ccccc1)C(=O)N[C@@H](CO)C(=O)N[C@@H](CC(C)C)C(=O)N[C@H](C(=O)N[C@@H](CCC(=O)O)C(=O)N[C@@H](Cc1ccccc1)C(=O)N[C@@H](Cc1ccccc1)C(=O)O)C(C)C [3102.1008] (H-FLLSLVEFF-OH)	0.82
CC(C)C[C@H](NC(=O)[C@H](CC(N)=O)NC(=O)[C@H](C)NC(=O)[C@H](CO)NC(=O)[C@@H](N)CC(C)C)C(=O)N[C@@H](Cc1ccccc1)C(=O)N[C@@H](CCC(=O)O)C(=O)N[C@@H](CO)C(=O)N[C@@H](CCC(N)=O)C(=O)O [3102.0959] (H-LSANLFESQ-OH)	45
CC[C@H](C)[C@H](NC(=O)[C@H](CCC(=O)O)NC(=O)[C@@H](N)CCC(=O)O)C(=O)N[C@@H](CO)C(=O)N[C@H](C(=O)N[C@@H](CO)C(=O)N[C@@H](CC(C)C)C(=O)N[C@@H](CO)C(=O)N[C@@H](Cc1ccccc1)C(=O)O)[C@@H](C)O [3102.0958] (H-EEISTSLSF-OH)	2.1
CSCC[C@H](NC(=O)[C@H](CCC(N)=O)NC(=O)[C@H](CO)NC(=O)[C@H](CO)NC(=O)[C@@H](N)CC(C)C)C(=O)N[C@H](C(=O)N[C@@H](CO)C(=O)N[C@H](C(=O)N[C@@H](Cc1ccccc1)C(=O)O)[C@@H](C)O)[C@@H](C)O [3102.0940] (H-LSSQMTSTF-OH)	4
CC[C@H](C)[C@H](NC(=O)[C@@H](NC(=O)CN)[C@@H](C)O)C(=O)N[C@@H](CCSC)C(=O)N[C@H](C(=O)N[C@@H](CO)C(=O)N[C@@H](CCC(=O)O)C(=O)N[C@@H](Cc1c[nH]cn1)C(=O)N[C@@H](Cc1ccccc1)C(=O)O)C(C)C [3102.1012] (H-GTIMVSEHF-OH)	57
CSCC[C@H](NC(=O)[C@H](Cc1ccc(O)cc1)NC(=O)[C@H](CO)NC(=O)[C@H](CCC(=O)O)NC(=O)[C@H](Cc1ccc(O)cc1)NC(=O)[C@H](CS)NC(=O)[C@H](Cc1c[nH]cn1)NC(=O)[C@H](CC(C)C)NC(=O)[C@@H](N)CCSC)C(=O)O [3102.0879] (H-MLHCYESYM-OH)	97
CC[C@H](C)[C@H](NC(=O)[C@H](CC(N)=O)NC(=O)[C@H](C)N)C(=O)N[C@H](C(=O)N[C@@H](Cc1c[nH]cn1)C(=O)N[C@@H](Cc1ccccc1)C(=O)N[C@@H](CS)C(=O)N[C@@H](CO)C(=O)N[C@@H](Cc1ccccc1)C(=O)O)[C@@H](C)O [3102.1005] (H-ANITHFCSF-OH)	15
CSCC[C@H](NC(=O)[C@H](CO)NC(=O)[C@H](CS)NC(=O)[C@H](CO)NC(=O)[C@@H](NC(=O)[C@@H](N)CCCCN)C(C)C)C(=O)N[C@@H](CC(C)C)C(=O)N[C@@H](CCC(=O)O)C(=O)N[C@@H](Cc1ccccc1)C(=O)O [3102.1010] (H-KVSCSMLEF-OH)	0.84
CC[C@H](C)[C@H](NC(=O)[C@H](C)NC(=O)[C@H](CCSC)NC(=O)[C@@H](NC(=O)[C@@H](NC(=O)[C@@H](N)C(C)C)[C@@H](C)CC)[C@@H](C)CC)C(=O)N[C@@H](CC(N)=O)C(=O)N[C@H](C(=O)N[C@@H](Cc1ccccc1)C(=O)O)C(C)C [3102.1303] (H-VIIMAINVF-OH)	26
CC[C@H](C)[C@H](NC(=O)CNC(=O)[C@@H]1CCCN1C(=O)[C@@H](NC(=O)[C@H](CCCNC(=N)N)NC(=O)[C@H](CCC(N)=O)NC(=O)[C@H](CCCCN)NC(=O)[C@H](CC(C)C)NC(=O)[C@@H](N)CCCNC(=N)N)[C@@H](C)O)C(=O)O [3102.0640] (H-RLKQRTPGI-OH)	17
CC[C@H](C)[C@H](N)C(=O)N[C@H](C(=O)N[C@H](C(=O)N1CCC[C@H]1C(=O)N[C@@H](Cc1ccccc1)C(=O)N[C@H](C(=O)N[C@@H](C)C(=O)N[C@@H](Cc1ccc(O)cc1)C(=O)N[C@@H](Cc1ccccc1)C(=O)O)[C@@H](C)CC)[C@@H](C)CC)[C@@H](C)CC [3102.0892] (H-IIIPFIAYF-OH)	1.6
CC(C)C[C@H](NC(=O)[C@@H]1CCCN1C(=O)[C@H](CCCNC(=N)N)NC(=O)[C@H](Cc1ccc(O)cc1)NC(=O)[C@H](Cc1ccccc1)NC(=O)[C@@H](NC(=O)CN)C(C)C)C(=O)N[C@@H](Cc1c[nH]cn1)C(=O)N[C@@H](Cc1ccccc1)C(=O)O [3102.0847] (H-GVFYRPLHF-OH)	5.5
CSCC[C@H](N)C(=O)N[C@H](C(=O)N[C@@H](Cc1ccc(O)cc1)C(=O)N[C@@H](CCCCN)C(=O)N[C@@H](CC(C)C)C(=O)N[C@H](C(=O)N[C@@H](CC(C)C)C(=O)N[C@@H](CC(C)C)C(=O)N[C@@H](Cc1ccccc1)C(=O)O)C(C)C)C(C)C [3102.0893] (H-MVYKLVLLF-OH)	71
CC[C@H](C)[C@H](NC(=O)[C@H](CO)NC(=O)[C@H](CC(C)C)NC(=O)[C@H](CC(C)C)NC(=O)[C@@H](N)CC(C)C)C(=O)N[C@@H](CC(N)=O)C(=O)N[C@@H](CO)C(=O)N[C@@H](CO)C(=O)N[C@@H](Cc1ccccc1)C(=O)O [3102.1035] (H-LLLSINSSF-OH)	0.88
CC[C@H](C)[C@H](NC(=O)[C@H](C)NC(=O)[C@@H](N)CC(C)C)C(=O)N1CCC[C@H]1C(=O)N[C@@H](C)C(=O)N[C@H](C(=O)N[C@@H](CCC(=O)O)C(=O)N[C@@H](Cc1ccccc1)C(=O)N[C@@H](Cc1ccccc1)C(=O)O)[C@@H](C)O [3102.1001] (H-LAIPATEFF-OH)	4.2
CSCC[C@H](N)C(=O)N[C@@H](CO)C(=O)N[C@@H](CO)C(=O)N[C@@H](CO)C(=O)N[C@@H](CCC(N)=O)C(=O)N[C@@H](CC(=O)O)C(=O)N[C@@H](CC(C)C)C(=O)N[C@@H](CO)C(=O)N[C@@H](Cc1ccccc1)C(=O)O [3102.1286] (H-MSSSQDLSF-OH)	16
